Here are results for 32 sequences from the supplement of paper PMC11208160.

The nature of the series: recombinant barcode read abundance after kanamycin selection (control-corrected) (log10(CPM+1)); higher = more efficient recombination; sequences stand for … in AGTGCAGAGAAAATCGGCCAGTTTTCTCTGCCTGCAGTCCGCATGCCGT…ATTTATGCAGCGGACTGCCTTTCTCCCAAAGTGATAAACCGGACAGTATCATGGACCGGTTTTCCCGGTAATCCGTATTTGCAAGGTTGGTTTCACT; site = the 11-nt target. In short, it runs like this:
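IS621 bridge RNA target-binding loops were paired with targets in a pooled library tested in E. coli. After co-electroporation with a donor plasmid, cells were plated in two replicates on chloramphenicol/ampicillin LB agar (control) and on chloramphenicol/ampicillin/kanamycin carrying 0.1 mM IPTG. Barcodes at recombinant junctions were counted as counts per million, averaged and control-corrected to give recombination efficiency. Values are log10(CPM+1).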
As for “CGCGCCCCGTGGGTTCTAACCTGTTGCGGCG [CGCGCCCCTCC_LTGcore_CG_RTGcore_CG] (site CGCGCCCCTCC) (LTG core: CG, RTG core: CG)”, the “recombinant barcode read abundance (log10)” value turned out to be 0.

Consider “CGCGCCCCTTGGGTTCTAACCTGTTGCGGAA [CGCGCCCCTCC_LTGcore_CT_RTGcore_TT] (site CGCGCCCCTCC) (LTG core: CT, RTG core: TT)”, for which the “recombinant barcode read abundance (log10)” value is 0.319.

With “CGCGCCCCTTGGGTTCTAACCTGTTGCGGCC [CGCGCCCCTCC_LTGcore_CT_RTGcore_GG] (site CGCGCCCCTCC) (LTG core: CT, RTG core: GG)”, the “recombinant barcode read abundance (log10)” value was 0.215.

As to “CGCGCCCCTTGGGTTCTAACCTGTTGCGGGG [CGCGCCCCTCC_LTGcore_CT_RTGcore_CC] (site CGCGCCCCTCC) (LTG core: CT, RTG core: CC)”, the “recombinant barcode read abundance (log10)” value stood at 0.105.

Consider “CGCGCCCGGTGGGTTCTAACCTGTTGCGGCC [CGCGCCCCTCC_LTGcore_GG_RTGcore_GG] (site CGCGCCCCTCC) (LTG core: GG, RTG core: GG)”, for which the “recombinant barcode read abundance (log10)” value worked out at 0.307.

In the case of “CGCGCCCTGTGGGTTCTAACCTGTTGCGGAG [CGCGCCCCTCC_LTGcore_TG_RTGcore_CT] (site CGCGCCCCTCC) (LTG core: TG, RTG core: CT)”, the “recombinant barcode read abundance (log10)” value worked out at 0.301.

Regarding “CGGTCCCCTTGGGTTCTAACCTGTTGCCACC [CGGTCCCCTTG_LTGcore_CT_RTGcore_GG] (site CGGTCCCCTTG) (LTG core: CT, RTG core: GG)”, the “recombinant barcode read abundance (log10)” value was 0.18.

Regarding “CGGTCCCTATGGGTTCTAACCTGTTGCCATA [CGGTCCCCTTG_LTGcore_TA_RTGcore_TA] (site CGGTCCCCTTG) (LTG core: TA, RTG core: TA)”, the “recombinant barcode read abundance (log10)” value amounted to 0.282.

In the case of “CGGTCCCTGTGGGTTCTAACCTGTTGCCAAG [CGGTCCCCTTG_LTGcore_TG_RTGcore_CT] (site CGGTCCCCTTG) (LTG core: TG, RTG core: CT)”, the “recombinant barcode read abundance (log10)” value amounted to 0.0242.

Turning to “CGGTCCCTTTGGGTTCTAACCTGTTGCCAAA [CGGTCCCCTTG_LTGcore_TT_RTGcore_TT] (site CGGTCCCCTTG) (LTG core: TT, RTG core: TT)”, the “recombinant barcode read abundance (log10)” value amounted to 0.0728.

“GAGCCCAAATGGGTTCTAACCTGTTGCCTAG [GAGCCCACTAG_LTGcore_AA_RTGcore_CT] (site GAGCCCACTAG) (LTG core: AA, RTG core: CT)”: the “recombinant barcode read abundance (log10)” value turned out to be 0.0475.

“GAGCCCACTTGGGTTCTAACCTGTTGCCTCA [GAGCCCACTAG_LTGcore_CT_RTGcore_TG] (site GAGCCCACTAG) (LTG core: CT, RTG core: TG)”: the “recombinant barcode read abundance (log10)” value came out at 0.593.

For “GAGCCCACTTGGGTTCTAACCTGTTGCCTCG [GAGCCCACTAG_LTGcore_CT_RTGcore_CG] (site GAGCCCACTAG) (LTG core: CT, RTG core: CG)”, the “recombinant barcode read abundance (log10)” value amounted to 0.1.

As to “GAGCCCACTTGGGTTCTAACCTGTTGCCTTA [GAGCCCACTAG_LTGcore_CT_RTGcore_TA] (site GAGCCCACTAG) (LTG core: CT, RTG core: TA)”, the “recombinant barcode read abundance (log10)” value came to 0.296.

Take “GAGCCCAGATGGGTTCTAACCTGTTGCCTAG [GAGCCCACTAG_LTGcore_GA_RTGcore_CT] (site GAGCCCACTAG) (LTG core: GA, RTG core: CT)”: the “recombinant barcode read abundance (log10)” value was 0.163.

For “GAGCCCAGATGGGTTCTAACCTGTTGCCTTC [GAGCCCACTAG_LTGcore_GA_RTGcore_GA] (site GAGCCCACTAG) (LTG core: GA, RTG core: GA)”, the “recombinant barcode read abundance (log10)” value was 0.057.

Take “GAGCCCATATGGGTTCTAACCTGTTGCCTAG [GAGCCCACTAG_LTGcore_TA_RTGcore_CT] (site GAGCCCACTAG) (LTG core: TA, RTG core: CT)”: the “recombinant barcode read abundance (log10)” value is 0.101.

For the sequence “GAGCCCATGTGGGTTCTAACCTGTTGCCTAG [GAGCCCACTAG_LTGcore_TG_RTGcore_CT] (site GAGCCCACTAG) (LTG core: TG, RTG core: CT)”, the “recombinant barcode read abundance (log10)” value is 0.0858.

Consider “GAGCCCATTTGGGTTCTAACCTGTTGCCTAG [GAGCCCACTAG_LTGcore_TT_RTGcore_CT] (site GAGCCCACTAG) (LTG core: TT, RTG core: CT)”, for which the “recombinant barcode read abundance (log10)” value came out at 0.0489.

Take “GAGGCCTAATGGGTTCTAACCTGTTGCCAAG [GAGGCCTCTTG_LTGcore_AA_RTGcore_CT] (site GAGGCCTCTTG) (LTG core: AA, RTG core: CT)”: the “recombinant barcode read abundance (log10)” value amounted to 0.153.

Consider “GAGGCCTAGTGGGTTCTAACCTGTTGCCAAG [GAGGCCTCTTG_LTGcore_AG_RTGcore_CT] (site GAGGCCTCTTG) (LTG core: AG, RTG core: CT)”, for which the “recombinant barcode read abundance (log10)” value turned out to be 0.106.

In the case of “GAGGCCTAGTGGGTTCTAACCTGTTGCCACT [GAGGCCTCTTG_LTGcore_AG_RTGcore_AG] (site GAGGCCTCTTG) (LTG core: AG, RTG core: AG)”, the “recombinant barcode read abundance (log10)” value was 0.159.

Regarding “GAGGCCTCGTGGGTTCTAACCTGTTGCCAAG [GAGGCCTCTTG_LTGcore_CG_RTGcore_CT] (site GAGGCCTCTTG) (LTG core: CG, RTG core: CT)”, the “recombinant barcode read abundance (log10)” value stood at 0.218.

On to “GAGGCCTCTTGGGTTCTAACCTGTTGCCAAG [GAGGCCTCTTG_LTGcore_CT_RTGcore_CT] (site GAGGCCTCTTG) (LTG core: CT, RTG core: CT)”, for which the “recombinant barcode read abundance (log10)” value is 1.82.

With “GAGGCCTCTTGGGTTCTAACCTGTTGCCACA [GAGGCCTCTTG_LTGcore_CT_RTGcore_TG] (site GAGGCCTCTTG) (LTG core: CT, RTG core: TG)”, the “recombinant barcode read abundance (log10)” value was 0.453.

With “GAGGCCTCTTGGGTTCTAACCTGTTGCCACT [GAGGCCTCTTG_LTGcore_CT_RTGcore_AG] (site GAGGCCTCTTG) (LTG core: CT, RTG core: AG)”, the “recombinant barcode read abundance (log10)” value is 0.379.

For the sequence “GAGGCCTCTTGGGTTCTAACCTGTTGCCAGG [GAGGCCTCTTG_LTGcore_CT_RTGcore_CC] (site GAGGCCTCTTG) (LTG core: CT, RTG core: CC)”, the “recombinant barcode read abundance (log10)” value was 0.236.

As for “GAGGCCTCTTGGGTTCTAACCTGTTGCCAGT [GAGGCCTCTTG_LTGcore_CT_RTGcore_AC] (site GAGGCCTCTTG) (LTG core: CT, RTG core: AC)”, the “recombinant barcode read abundance (log10)” value was 0.0794.

For the sequence “GAGGCCTCTTGGGTTCTAACCTGTTGCCATA [GAGGCCTCTTG_LTGcore_CT_RTGcore_TA] (site GAGGCCTCTTG) (LTG core: CT, RTG core: TA)”, the “recombinant barcode read abundance (log10)” value turned out to be 0.267.

With “GAGGCCTCTTGGGTTCTAACCTGTTGCCATC [GAGGCCTCTTG_LTGcore_CT_RTGcore_GA] (site GAGGCCTCTTG) (LTG core: CT, RTG core: GA)”, the “recombinant barcode read abundance (log10)” value was 0.252.

For the sequence “GAGGCCTGTTGGGTTCTAACCTGTTGCCAAC [GAGGCCTCTTG_LTGcore_GT_RTGcore_GT] (site GAGGCCTCTTG) (LTG core: GT, RTG core: GT)”, the “recombinant barcode read abundance (log10)” value is 0.104.

“GAGGCCTTCTGGGTTCTAACCTGTTGCCAAG [GAGGCCTCTTG_LTGcore_TC_RTGcore_CT] (site GAGGCCTCTTG) (LTG core: TC, RTG core: CT)”: the “recombinant barcode read abundance (log10)” value is 0.0445.
